Where two headings read alike, the source gives them in different places.
Tests used:
[1] = test system: Mouse BCR transgenic B cells; assay: Proinflammatory cytokine release of mouse BCR transgenic B cells; format: cell-based; settings: Mouse BCR tg B cell, stimulus HEL, mean of at least two experiments
Text: Purification of CD19^+ splenic B cells from MD4 HEL BcR Tg mice MD4 HEL BcR transgenic B10.BR (MD4 B10.BR) mice were a kind gift from Prof. Jose Moreno (Research Unit on Autoimmune Diseases, Centro Medico Nacional Siglo XXI, Mexico).
The spleens were isolated from MD4 B10.BR and non-transgenic litter control B10.BR mice after sacrificed by exposure to excess amount of isoflurane. The isolated spleens were suspended in RPMI1640 (Invitrogen, #31870), and dissociated by GentleMACS Dissociator (Miltenyi Biotec), and filtrated with Cell Strainer (BD Falcon, 70 μm mesh, #352350). […] The purity was determined via the proportion of CD19 cells in the separated fraction in FACS analysis, and was more than 95%.
FACS Data was analyzed, and their mean fluorescence intensity (MFI) were calculated with FlowJo software (Tree Star Inc). The IC50 values were calculated with GraphPad PRISM ver 6.0 software (GraphPad Software Inc).
One million of B cells purified from MD4 B10.BR as written in the section 2.1 was suspended in 200 μl of complete culture medium, and stimulated with 100 μM of HEL proteins with soluble CD40 ligand at 37° C., 5% CO2 for 48 hours. […] The data are represented as the mean of concentration (pg/ml) from triplicate samples, and IC50 values are calculated as described above. […]

PI3K/Akt pathway = assay: pAkt in B cells in stimulated whole blood clinical samples after single oral administration; format: in vivo; settings: healthy human subjects
Protocol: For assessment of the in vivo effects of compound A on human B cell activation measured as Akt phosphorylation vlinical samples were prepared from whole blood using a Na-Heparin monovette system.
Whole blood was then incubated with either anti-IgM/IL-4 (7.5 μg/ml of anti-IgM [Southern Biotech] and 7.5 ng/ml of IL-4 [R&D]) or with PBS (unstimulated sample). Incubation was performed using 95 μl of blood (in duplicates) in plate format within 1 h after blood collection. Cultures were mixed well by gently pipetting up and down and incubated at 37° C. (in incubator, 5% CO2). After 30 min whole blood was lysed and fixed with pre-warmed (37° C.) BD PhosFlow-Lyse/Fix buffer (1600 μl) for 20 minutes at 37° C. (water bath) in the dark. The lysed and fixed blood samples were immediately frozen and stored at −80° C. until further processing.
Clinical samples were processed within one week after blood collection. After thawing was completed (at 37° C. water-bath), samples were centrifuged at 502 g (1580 rpm) for 5 min at room temperature. Then pelleted cells were washed with 500 μL ice cold BD Phosflow Perm II buffer, mixed well and kept on ice for 30-35 minutes. […]
Samples were analyzed on the same day. […] Data was calculated as percent inhibition of pAkt relative to the baseline value.

CCC(=O)N1CC[C@H](Nc2ncnc3c2CN(c2cnc(OC)c(C(F)(F)F)c2)CC3)C1 [Compound A, 1-{(S)-3-[6-(6-Methoxy-5-trifluoromethyl-pyridin-3-yl)-5,6,7,8-tetrahydro-pyrido[4,3-d]pyrimidin-4-ylamino]-pyrrolidin-1-yl}-propan-1-one]
IC50 ([1]; read-out: IC50 IL-6): 22 nM
IC50 ([1]; read-out: IC50 TNFα): 28 nM
pathway inhibition (PI3K/Akt) (PI3K/Akt pathway; single administration of 80 mg, over 12 hours): greater than 80%
inhibition of the PI3K/Akt pathway (in words) (PI3K/Akt pathway; single oral administration): dose-, concentration- and time-dependent inhibition

From US20190038628A1, “USE OF INHIBITORS OF THE ACTIVITY OR FUNCTION OF PI3K FOR THE TREATMENT OF PRIMARY SJOGREN'S SYNDROME” (Novartis AG, priority 2016, published 2019)
